The values that follow come from ChEMBL document CHEMBL3600346, “Synthesis and carbonic anhydrase inhibitory properties of novel uracil derivatives” (Bioorg Med Chem Lett, 2015).

Activity calls are given as the source filed them. The rule behind the calls is not given here.

The target of assay [1] is T1, Carbonic anhydrase 1 (Homo sapiens, UniProt P00915). Briefly: Competitive inhibition of human erythrocytes CA1 using 4-nitrophenylacetate as substrate by Lineweaver-Burk plot analysis.
Target sequence in this assay (P00915 2-261 limits assumed): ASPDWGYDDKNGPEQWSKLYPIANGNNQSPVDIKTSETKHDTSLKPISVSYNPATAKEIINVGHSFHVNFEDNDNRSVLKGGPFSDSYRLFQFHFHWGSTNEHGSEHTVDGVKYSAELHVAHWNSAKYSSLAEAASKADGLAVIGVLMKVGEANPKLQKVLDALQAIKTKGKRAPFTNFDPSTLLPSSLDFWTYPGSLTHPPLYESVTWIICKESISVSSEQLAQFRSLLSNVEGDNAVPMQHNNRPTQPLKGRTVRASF
In another assay the target is Carbonic anhydrase 2 (Homo sapiens, UniProt P00918). Briefly: Inhibition of human erythrocytes CA2 using 4-nitrophenylacetate as substrate by esterase assay.
Assay [2] addresses T1, Carbonic anhydrase 1. Briefly: Inhibition of human erythrocytes CA1 using 4-nitrophenylacetate as substrate by esterase assay.
Target sequence in this assay (P00915 whole entry): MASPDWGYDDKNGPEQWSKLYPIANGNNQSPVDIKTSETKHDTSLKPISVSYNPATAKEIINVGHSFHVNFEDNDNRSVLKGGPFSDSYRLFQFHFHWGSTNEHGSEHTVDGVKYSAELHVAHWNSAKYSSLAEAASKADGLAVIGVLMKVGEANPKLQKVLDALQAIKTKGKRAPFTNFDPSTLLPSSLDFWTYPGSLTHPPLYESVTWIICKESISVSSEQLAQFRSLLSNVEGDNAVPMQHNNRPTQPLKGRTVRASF

Consider `CC(=O)n1cc(Br)c(=O)[nH]c1=O`, for which the inhibition mode entry on Carbonic anhydrase 1 [1] is “Active”. Besides, the Ki (usually the dissociation constant of the complex between target and ligand, obtained from inhibition or displacement) at Carbonic anhydrase 2 (read-out: Ki) was 778 µM; at Carbonic anhydrase 1 [2], 464 µM.
`Cn1ccc(=O)n(C)c1=O`: the inhibition mode result at Carbonic anhydrase 1 [1] was “Active”. The Ki amounted to 166 µM on Carbonic anhydrase 2 (read-out: Ki) and 316 µM at Carbonic anhydrase 1 [2].
Take `CS(=O)(=O)n1cc(Br)c(=O)[nH]c1=O`: on Carbonic anhydrase 1 [1], the inhibition mode result is “Active”. Further, the Ki amounted to 645 µM on Carbonic anhydrase 2 (read-out: Ki) and 428 µM at Carbonic anhydrase 1 [2].
For the compound `Oc1ccccc1O`, the inhibition result at Carbonic anhydrase 1 [1] is “Active”.
For the compound `O=c1[nH]cc(CO)c(=O)[nH]1`, the figures for the Ki result at Carbonic anhydrase 2 and at Carbonic anhydrase 1 [2] were “Not Active” and 49.5 µM, respectively.
For `Oc1cccc(O)c1`, at Carbonic anhydrase 1 [1], the inhibition mode result was “Active”.
With `Oc1ccccc1`, at Carbonic anhydrase 1 [1], the inhibition result is “Active”.
For the compound `Cc1ccc(S(=O)(=O)n2cc(Br)c(=O)[nH]c2=O)cc1`, the inhibition mode entry on Carbonic anhydrase 1 [1] was “Active”. Besides, the Ki on Carbonic anhydrase 2 (read-out: Ki) stood at 28.9 µM; at Carbonic anhydrase 1 [2] it was 10.8 µM.
Consider `Cc1cc(O)nc(O)n1`, for which, at Carbonic anhydrase 1 [1], the inhibition result is “Active”. Also, the Ki result at Carbonic anhydrase 2 was “Not Active”; at Carbonic anhydrase 1 [2], 57.8 µM.
